Measured values from ChEMBL document CHEMBL4507316 (2021).

Experiments:
[1] = biological target: Calcium/calmodulin-dependent protein kinase kinase 1 (Homo sapiens) (UniProt Q8N5S9); assay: CAMKK1 ProQinase selectivity panel; settings: Compound concentration 1.0 uM
[2] = test system: Proto-oncogene tyrosine-protein kinase receptor Ret (Homo sapiens), P07949 [Y791F]; assay: RET Y791F ProQinase selectivity panel; settings: Compound concentration 1.0 uM
[3] = test system: Hepatocyte growth factor receptor (Homo sapiens), P08581 [M1250T]; assay: MET M1250T ProQinase selectivity panel; settings: Compound concentration 1.0 uM
[4] = test system: Fibroblast growth factor receptor 3 (Homo sapiens), P22607 [K650E]; assay: FGF-R3 K650E ProQinase selectivity panel; settings: Compound concentration 1.0 uM
[5] = biological target: Epidermal growth factor receptor (Homo sapiens) (UniProt P00533); assay: EGF-R wt ProQinase selectivity panel; settings: Compound concentration 1.0 uM
[6] = biological target: Ephrin type-B receptor 4 (Homo sapiens) (UniProt P54760); assay: EPHB4 ProQinase selectivity panel; settings: Compound concentration 1.0 uM
[7] = biological target: 5-hydroxytryptamine receptor 1E (Homo sapiens) (UniProt P28566); settings: Compound concentration 10.0 uM
[8] = biological target: 5-hydroxytryptamine receptor 7 (Homo sapiens) (UniProt P34969); settings: Compound concentration 10.0 uM
[9] = biological target: Dual serine/threonine and tyrosine protein kinase (Homo sapiens) (UniProt Q6XUX3); assay: RIPK5 ProQinase selectivity panel; settings: Compound concentration 1.0 uM
[10] = biological target: Ephrin type-A receptor 5 (Homo sapiens) (UniProt P54756); assay: EPHA5 ProQinase selectivity panel; settings: Compound concentration 1.0 uM
[11] = biological target: Vascular endothelial growth factor receptor 2 (Homo sapiens) (UniProt P35968); assay: VEGF-R2 ProQinase selectivity panel; settings: Compound concentration 1.0 uM
[12] = biological target: High affinity nerve growth factor receptor (Homo sapiens) (UniProt P04629); assay: TRK-A ProQinase selectivity panel; settings: Compound concentration 1.0 uM
[13] = biological target: Dual specificity tyrosine-phosphorylation-regulated kinase 1B (Homo sapiens) (UniProt Q9Y463); assay: DYRK1B ProQinase selectivity panel; settings: Compound concentration 1.0 uM
[14] = biological target: Histamine H3 receptor (Homo sapiens) (UniProt Q9Y5N1); settings: Compound concentration 10.0 uM
[15] = biological target: Receptor-type tyrosine-protein kinase FLT3 (Homo sapiens) (UniProt P36888); assay: FLT3 wt ProQinase selectivity panel; settings: Compound concentration 1.0 uM
[16] = biological target: Calcium/calmodulin-dependent protein kinase kinase 2 (Homo sapiens) (UniProt Q96RR4); assay: CAMKK2 ProQinase selectivity panel; settings: Compound concentration 1.0 uM
[17] = biological target: Sodium-dependent noradrenaline transporter (Homo sapiens) (UniProt P23975); settings: Compound concentration 10.0 uM
[18] = biological target: Casein kinase II subunit alpha (Homo sapiens) (UniProt P68400); assay: CK2-alpha1 ProQinase selectivity panel; settings: Compound concentration 1.0 uM
[19] = test system: Tyrosine-protein kinase ABL1 (Homo sapiens), P00519 [M351T]; assay: ABL1 M351T ProQinase selectivity panel; settings: Compound concentration 1.0 uM
[20] = biological target: MAP/microtubule affinity-regulating kinase 3 (Homo sapiens) (UniProt P27448); assay: MARK3 ProQinase selectivity panel; settings: Compound concentration 1.0 uM
[21] = biological target: GABA-A receptor; anion channel (Rattus norvegicus) (UniProt O09028+P15431+P18506+P18508+P19969+P20236+P23574+P23576+P28471+P28473+P30191+P62813+P63079+P63138+Q91ZM7+Q9ES14); settings: Compound concentration 10.0 uM
[22] = biological target: Serine/threonine-protein kinase 16 (Homo sapiens) (UniProt O75716); assay: TSF1 ProQinase selectivity panel; settings: Compound concentration 1.0 uM
[23] = biological target: Tyrosine-protein kinase JAK1 (Homo sapiens) (UniProt P23458); assay: JAK1 ProQinase selectivity panel; settings: Compound concentration 1.0 uM
[24] = biological target: Dual specificity protein kinase TTK (Homo sapiens) (UniProt P33981); assay: TTK ProQinase selectivity panel; settings: Compound concentration 1.0 uM
[25] = biological target: NT-3 growth factor receptor (Homo sapiens) (UniProt Q16288); assay: TRK-C ProQinase selectivity panel; settings: Compound concentration 1.0 uM
[26] = biological target: Casein kinase I isoform epsilon (Homo sapiens) (UniProt P49674); assay: CK1-epsilon ProQinase selectivity panel; settings: Compound concentration 1.0 uM
[27] = biological target: LIM domain kinase 1 (Homo sapiens) (UniProt P53667); assay: LIMK1 ProQinase selectivity panel; settings: Compound concentration 1.0 uM
[28] = biological target: Ephrin type-A receptor 8 (Homo sapiens) (UniProt P29322); assay: EPHA8 ProQinase selectivity panel; settings: Compound concentration 1.0 uM
[29] = biological target: Tyrosine-protein kinase FRK (Homo sapiens) (UniProt P42685); assay: FRK ProQinase selectivity panel; settings: Compound concentration 1.0 uM
[30] = biological target: cAMP-dependent protein kinase catalytic subunit alpha (Homo sapiens) (UniProt P17612); assay: PKA ProQinase selectivity panel; settings: Compound concentration 1.0 uM
[31] = biological target: Proto-oncogene tyrosine-protein kinase Src (Homo sapiens) (UniProt P12931); assay: SRC ProQinase selectivity panel; settings: Compound concentration 1.0 uM
[32] = biological target: 5-hydroxytryptamine receptor 2B (Homo sapiens, UniProt P41595); settings: Compound concentration 10.0 uM
[33] = biological target: Ribosomal protein S6 kinase alpha-3 (Homo sapiens) (UniProt P51812); assay: RPS6KA3 ProQinase selectivity panel; settings: Compound concentration 1.0 uM
[34] = test system: Tyrosine-protein kinase ABL1 (Homo sapiens), P00519 [E255K]; assay: ABL1 E255K ProQinase selectivity panel; settings: Compound concentration 1.0 uM
[35] = biological target: Dual specificity tyrosine-phosphorylation-regulated kinase 1A (Homo sapiens) (UniProt Q13627); assay: DYRK1A ProQinase selectivity panel; settings: Compound concentration 1.0 uM
[36] = biological target: Muscarinic acetylcholine receptor M3 (Homo sapiens) (UniProt P20309); settings: Compound concentration 10.0 uM
[37] = biological target: Dual specificity protein kinase CLK3 (Homo sapiens) (UniProt P49761); assay: CLK3 ProQinase selectivity panel; settings: Compound concentration 1.0 uM
[38] = biological target: Ephrin type-A receptor 1 (Homo sapiens) (UniProt P21709); assay: EPHA1 ProQinase selectivity panel; settings: Compound concentration 1.0 uM
[39] = biological target: Cyclin-dependent kinase 16 (Homo sapiens) (UniProt Q00536); assay: PCTAIRE1 ProQinase selectivity panel; settings: Compound concentration 1.0 uM
[40] = biological target: Wee1-like protein kinase (Homo sapiens) (UniProt P30291); assay: WEE1 ProQinase selectivity panel; settings: Compound concentration 1.0 uM
[41] = biological target: Mitogen-activated protein kinase kinase kinase 14 (Homo sapiens) (UniProt Q99558); assay: NIK ProQinase selectivity panel; settings: Compound concentration 1.0 uM
[42] = biological target: Rho-associated protein kinase 2 (Homo sapiens) (UniProt O75116); assay: ROCK2 ProQinase selectivity panel; settings: Compound concentration 1.0 uM
[43] = biological target: Vascular endothelial growth factor receptor 1 (Homo sapiens) (UniProt P17948); assay: VEGF-R1 ProQinase selectivity panel; settings: Compound concentration 1.0 uM
[44] = biological target: Tyrosine-protein kinase ABL1 (Homo sapiens) (UniProt P00519); assay: ABL1 wt ProQinase selectivity panel; settings: Compound concentration 1.0 uM
[45] = biological target: SRSF protein kinase 2 (Homo sapiens) (UniProt P78362); assay: SRPK2 ProQinase selectivity panel; settings: Compound concentration 1.0 uM
[46] = biological target: Serine/threonine-protein kinase PAK 3 (Homo sapiens) (UniProt O75914); assay: PAK3 ProQinase selectivity panel; settings: Compound concentration 1.0 uM
[47] = biological target: Tyrosine-protein kinase Fes/Fps (Homo sapiens) (UniProt P07332); assay: FES ProQinase selectivity panel; settings: Compound concentration 1.0 uM
[48] = biological target: Tyrosine-protein kinase JAK2 (Homo sapiens) (UniProt O60674); assay: JAK2 ProQinase selectivity panel; settings: Compound concentration 1.0 uM

Rho-associated protein kinase 2 (Homo sapiens), sequence (O75116 whole entry, looked up): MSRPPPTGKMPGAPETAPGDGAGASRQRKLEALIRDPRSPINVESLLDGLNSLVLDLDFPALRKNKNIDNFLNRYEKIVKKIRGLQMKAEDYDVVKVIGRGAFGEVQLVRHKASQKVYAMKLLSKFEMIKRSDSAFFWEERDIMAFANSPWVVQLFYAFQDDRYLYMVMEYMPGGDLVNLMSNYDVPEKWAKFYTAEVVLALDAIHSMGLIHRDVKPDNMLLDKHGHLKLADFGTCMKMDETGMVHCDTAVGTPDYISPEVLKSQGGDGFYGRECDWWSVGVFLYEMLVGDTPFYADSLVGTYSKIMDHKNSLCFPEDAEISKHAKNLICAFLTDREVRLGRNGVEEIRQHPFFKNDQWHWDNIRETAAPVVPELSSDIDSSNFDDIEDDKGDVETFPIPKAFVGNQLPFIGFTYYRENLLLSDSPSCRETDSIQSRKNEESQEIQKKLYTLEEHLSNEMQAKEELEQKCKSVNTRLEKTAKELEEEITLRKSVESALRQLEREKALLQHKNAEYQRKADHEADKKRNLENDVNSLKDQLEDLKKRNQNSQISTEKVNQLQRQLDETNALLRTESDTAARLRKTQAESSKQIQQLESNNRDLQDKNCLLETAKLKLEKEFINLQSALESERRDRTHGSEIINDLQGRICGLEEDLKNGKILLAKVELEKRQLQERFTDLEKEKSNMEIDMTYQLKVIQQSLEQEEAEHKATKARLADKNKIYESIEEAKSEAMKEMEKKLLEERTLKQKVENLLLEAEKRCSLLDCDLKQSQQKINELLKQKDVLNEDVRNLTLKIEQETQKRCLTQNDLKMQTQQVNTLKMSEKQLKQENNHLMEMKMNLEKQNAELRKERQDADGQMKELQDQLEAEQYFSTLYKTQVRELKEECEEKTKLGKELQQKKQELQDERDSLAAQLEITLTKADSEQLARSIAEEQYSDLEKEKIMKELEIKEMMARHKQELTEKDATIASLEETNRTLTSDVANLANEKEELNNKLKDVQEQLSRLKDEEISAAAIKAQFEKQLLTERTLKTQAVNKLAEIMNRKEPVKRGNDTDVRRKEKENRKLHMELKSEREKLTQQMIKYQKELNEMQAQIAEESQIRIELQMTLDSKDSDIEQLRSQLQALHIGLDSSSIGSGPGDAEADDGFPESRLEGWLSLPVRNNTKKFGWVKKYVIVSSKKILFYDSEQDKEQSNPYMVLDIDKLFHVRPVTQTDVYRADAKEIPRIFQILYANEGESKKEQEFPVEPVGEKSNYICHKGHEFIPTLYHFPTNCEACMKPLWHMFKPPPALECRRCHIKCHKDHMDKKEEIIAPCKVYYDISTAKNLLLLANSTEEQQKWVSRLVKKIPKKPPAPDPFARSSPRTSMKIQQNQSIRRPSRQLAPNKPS
Ribosomal protein S6 kinase alpha-3 (Homo sapiens), sequence (P51812 whole entry): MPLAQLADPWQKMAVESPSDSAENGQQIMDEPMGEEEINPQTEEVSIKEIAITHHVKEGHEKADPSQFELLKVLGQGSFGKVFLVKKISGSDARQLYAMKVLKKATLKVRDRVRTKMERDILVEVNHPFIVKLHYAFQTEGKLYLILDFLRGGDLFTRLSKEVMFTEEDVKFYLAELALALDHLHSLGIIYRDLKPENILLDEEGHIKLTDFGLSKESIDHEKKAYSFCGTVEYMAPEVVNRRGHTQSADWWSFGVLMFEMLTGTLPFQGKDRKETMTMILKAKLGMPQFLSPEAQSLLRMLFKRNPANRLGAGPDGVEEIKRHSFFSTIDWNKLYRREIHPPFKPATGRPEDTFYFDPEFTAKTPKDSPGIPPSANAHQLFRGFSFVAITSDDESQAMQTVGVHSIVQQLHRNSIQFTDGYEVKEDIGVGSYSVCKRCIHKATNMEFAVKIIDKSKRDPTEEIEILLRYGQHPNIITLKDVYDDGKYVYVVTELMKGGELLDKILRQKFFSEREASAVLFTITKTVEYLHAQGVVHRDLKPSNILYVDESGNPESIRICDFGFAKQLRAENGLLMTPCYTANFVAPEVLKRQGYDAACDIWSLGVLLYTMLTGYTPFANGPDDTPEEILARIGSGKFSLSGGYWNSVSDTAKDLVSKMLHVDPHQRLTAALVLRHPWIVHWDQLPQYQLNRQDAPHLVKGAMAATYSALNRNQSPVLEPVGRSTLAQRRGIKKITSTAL
Mitogen-activated protein kinase kinase kinase 14 (Homo sapiens), sequence (Q99558 whole entry, looked up): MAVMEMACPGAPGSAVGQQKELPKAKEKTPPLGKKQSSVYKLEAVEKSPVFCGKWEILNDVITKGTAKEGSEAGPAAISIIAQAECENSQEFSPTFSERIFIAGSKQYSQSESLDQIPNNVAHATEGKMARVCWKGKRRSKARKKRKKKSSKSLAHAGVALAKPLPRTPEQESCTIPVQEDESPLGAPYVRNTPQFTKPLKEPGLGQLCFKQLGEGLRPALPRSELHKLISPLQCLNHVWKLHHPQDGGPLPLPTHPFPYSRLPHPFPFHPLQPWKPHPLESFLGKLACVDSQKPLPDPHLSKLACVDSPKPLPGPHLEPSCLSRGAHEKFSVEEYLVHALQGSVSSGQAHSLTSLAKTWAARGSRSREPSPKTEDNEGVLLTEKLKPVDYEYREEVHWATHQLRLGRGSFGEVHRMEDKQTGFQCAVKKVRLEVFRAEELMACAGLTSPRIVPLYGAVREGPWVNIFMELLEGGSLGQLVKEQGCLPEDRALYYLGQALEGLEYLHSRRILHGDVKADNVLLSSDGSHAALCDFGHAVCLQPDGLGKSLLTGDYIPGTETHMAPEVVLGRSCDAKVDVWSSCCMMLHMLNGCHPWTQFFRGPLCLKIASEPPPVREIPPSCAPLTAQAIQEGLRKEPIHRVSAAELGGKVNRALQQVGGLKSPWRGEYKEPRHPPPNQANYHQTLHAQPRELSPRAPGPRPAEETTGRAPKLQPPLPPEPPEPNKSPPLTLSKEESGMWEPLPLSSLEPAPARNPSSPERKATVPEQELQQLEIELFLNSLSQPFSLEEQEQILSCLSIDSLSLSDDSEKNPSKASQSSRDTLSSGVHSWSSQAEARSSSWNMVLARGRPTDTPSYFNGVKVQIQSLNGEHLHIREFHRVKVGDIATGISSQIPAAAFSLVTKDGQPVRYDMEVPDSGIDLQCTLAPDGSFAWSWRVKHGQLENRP
NT-3 growth factor receptor (Homo sapiens), sequence (Q16288 32-839 limits assumed): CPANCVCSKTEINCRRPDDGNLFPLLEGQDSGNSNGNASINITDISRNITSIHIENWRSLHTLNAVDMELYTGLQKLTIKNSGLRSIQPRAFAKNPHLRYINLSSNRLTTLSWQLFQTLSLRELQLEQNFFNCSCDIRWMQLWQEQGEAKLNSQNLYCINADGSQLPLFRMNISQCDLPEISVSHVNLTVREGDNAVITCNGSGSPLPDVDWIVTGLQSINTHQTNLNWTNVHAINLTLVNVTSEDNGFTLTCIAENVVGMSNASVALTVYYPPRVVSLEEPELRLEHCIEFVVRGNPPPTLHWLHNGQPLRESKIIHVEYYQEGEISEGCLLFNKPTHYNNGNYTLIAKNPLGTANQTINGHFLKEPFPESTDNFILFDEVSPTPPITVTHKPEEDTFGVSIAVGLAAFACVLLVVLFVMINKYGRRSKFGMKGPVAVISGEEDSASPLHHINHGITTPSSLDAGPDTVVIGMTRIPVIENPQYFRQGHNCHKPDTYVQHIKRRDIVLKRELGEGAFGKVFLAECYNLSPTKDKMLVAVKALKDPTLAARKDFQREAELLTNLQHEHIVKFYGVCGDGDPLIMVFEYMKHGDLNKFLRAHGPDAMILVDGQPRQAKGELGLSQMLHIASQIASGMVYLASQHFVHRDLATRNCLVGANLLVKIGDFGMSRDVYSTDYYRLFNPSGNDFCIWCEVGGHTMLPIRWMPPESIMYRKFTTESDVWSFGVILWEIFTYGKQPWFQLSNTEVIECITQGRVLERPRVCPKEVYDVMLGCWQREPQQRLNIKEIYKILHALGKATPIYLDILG
Wee1-like protein kinase (Homo sapiens), sequence (P30291 whole entry, looked up): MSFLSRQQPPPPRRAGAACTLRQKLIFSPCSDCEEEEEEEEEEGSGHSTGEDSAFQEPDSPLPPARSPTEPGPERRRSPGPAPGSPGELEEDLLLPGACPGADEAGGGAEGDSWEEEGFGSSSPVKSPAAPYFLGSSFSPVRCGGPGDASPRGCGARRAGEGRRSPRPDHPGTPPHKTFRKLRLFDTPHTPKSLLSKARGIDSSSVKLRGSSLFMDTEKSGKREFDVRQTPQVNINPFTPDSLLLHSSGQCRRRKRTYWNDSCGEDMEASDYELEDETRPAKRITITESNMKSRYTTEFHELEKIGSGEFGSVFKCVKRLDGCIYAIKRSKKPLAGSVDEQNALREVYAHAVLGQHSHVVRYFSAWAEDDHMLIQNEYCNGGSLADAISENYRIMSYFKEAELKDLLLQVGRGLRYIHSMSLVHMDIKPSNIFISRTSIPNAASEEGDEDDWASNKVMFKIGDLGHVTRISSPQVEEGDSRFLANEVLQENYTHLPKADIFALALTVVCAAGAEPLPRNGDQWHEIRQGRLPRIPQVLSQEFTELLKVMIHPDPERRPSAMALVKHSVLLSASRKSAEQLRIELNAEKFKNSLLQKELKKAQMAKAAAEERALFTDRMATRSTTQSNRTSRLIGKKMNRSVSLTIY
Calcium/calmodulin-dependent protein kinase kinase 1 (Homo sapiens), sequence (Q8N5S9 whole entry, looked up): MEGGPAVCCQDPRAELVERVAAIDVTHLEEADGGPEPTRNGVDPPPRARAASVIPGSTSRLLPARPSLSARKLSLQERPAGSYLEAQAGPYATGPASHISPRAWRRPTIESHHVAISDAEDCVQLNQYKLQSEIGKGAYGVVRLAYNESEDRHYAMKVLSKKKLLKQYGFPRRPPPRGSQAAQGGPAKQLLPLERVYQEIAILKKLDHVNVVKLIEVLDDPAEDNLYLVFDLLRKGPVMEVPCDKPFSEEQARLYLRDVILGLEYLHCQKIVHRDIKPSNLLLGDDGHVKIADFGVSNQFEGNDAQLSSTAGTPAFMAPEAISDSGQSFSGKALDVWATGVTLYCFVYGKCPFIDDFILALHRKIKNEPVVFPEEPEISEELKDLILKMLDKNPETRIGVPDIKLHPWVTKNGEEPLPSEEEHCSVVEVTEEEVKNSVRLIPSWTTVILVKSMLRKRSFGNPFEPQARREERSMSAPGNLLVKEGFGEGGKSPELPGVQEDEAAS

- % Residual activity with Skepinone-L [1]: 83%
- % Residual activity with Skepinone-L [2]: 141%
- % Residual activity with Skepinone-L [3]: 100%
- % Residual activity with Skepinone-L [4]: 99%
- % Residual activity with Skepinone-L [5]: 94%
- % Residual activity with Skepinone-L [6]: 128%
- inhibition [7]: 18.8%
- inhibition [8]: -9.25%
- % Residual activity with Skepinone-L [9]: 95%
- % Residual activity with Skepinone-L [10]: 132%
- % Residual activity with Skepinone-L [11]: 91%
- % Residual activity with Skepinone-L [12]: 111%
- % Residual activity with Skepinone-L [13]: 102%
- inhibition [14]: 10.9%
- % Residual activity with Skepinone-L [15]: 106%
- % Residual activity with Skepinone-L [16]: 97%
- inhibition [17]: 29.4%
- % Residual activity with Skepinone-L [18]: 95%
- % Residual activity with Skepinone-L [19]: 102%
- % Residual activity with Skepinone-L [20]: 95%
- inhibition [21]: 8.2%
- % Residual activity with Skepinone-L [22]: 94%
- % Residual activity with Skepinone-L [23]: 93%
- % Residual activity with Skepinone-L [24]: 83%
- % Residual activity with Skepinone-L [25]: 120%
- % Residual activity with Skepinone-L [26]: 86%
- % Residual activity with Skepinone-L [27]: 109%
- % Residual activity with Skepinone-L [28]: 95%
- % Residual activity with Skepinone-L [29]: 111%
- % Residual activity with Skepinone-L [30]: 94%
- % Residual activity with Skepinone-L [31]: 119%
- inhibition [32]: 83.1%
- % Residual activity with Skepinone-L [33]: 89%
- % Residual activity with Skepinone-L [34]: 105%
- % Residual activity with Skepinone-L [35]: 96%
- inhibition [36]: 11.2%
- % Residual activity with Skepinone-L [37]: 88%
- % Residual activity with Skepinone-L [38]: 115%
- % Residual activity with Skepinone-L [39]: 79%
- % Residual activity with Skepinone-L [40]: 88%
- % Residual activity with Skepinone-L [41]: 96%
- % Residual activity with Skepinone-L [42]: 90%
- % Residual activity with Skepinone-L [43]: 113%
- % Residual activity with Skepinone-L [44]: 95%
- % Residual activity with Skepinone-L [45]: 101%
- % Residual activity with Skepinone-L [46]: 107%
- % Residual activity with Skepinone-L [47]: 121%
- % Residual activity with Skepinone-L [48]: 90%
Structure (SMILES): O=C1c2ccc(Nc3ccc(F)cc3F)cc2CCc2ccc(OC[C@H](O)CO)cc21 [Skepinone-L]
